Measured values reported in PubChem BioAssay (NCI).
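Step 1: Grow cells in 96-well plates. Step 2: Expose to compound for 48 hours at 5 concentrations. Step 3: Interpolate endpoints linearly; if unreached, use highest concentration. GI50 marks 50% less growth. At the TGI there is no net growth.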

Key:
Assay in all cases: DTP human tumour cell line panel, 48 h
[1] = tested on: CCRF-CEM leukemia
[2] = tested on: 786-0 renal
[3] = tested on: OVCAR-5 ovarian
[4] = tested on: NCI/ADR-RES ovarian
[5] = tested on: T-47D breast
[6] = tested on: K-562 leukemia
[7] = tested on: OVCAR-4 ovarian
[8] = tested on: SF-295 CNS
[9] = tested on: ACHN renal
[10] = tested on: HT29 colon
[11] = tested on: LOX IMVI melanoma
[12] = tested on: HCT-15 colon
[13] = tested on: UACC-62 melanoma
[14] = tested on: SW-620 colon
[15] = tested on: SK-MEL-2 melanoma
[16] = tested on: PC-3 prostate
[17] = tested on: U251 CNS
[18] = tested on: M14 melanoma
[19] = tested on: UO-31 renal
[20] = tested on: HCT-116 colon
[21] = tested on: SR leukemia
[22] = tested on: HCC-2998 colon
[23] = tested on: SN12C renal
[24] = tested on: DU-145 prostate
[25] = tested on: SNB-19 CNS
[26] = tested on: CAKI-1 renal
[27] = tested on: HL-60(TB) leukemia
[28] = tested on: NCI-H522 lung
[29] = tested on: SK-OV-3 ovarian
[30] = tested on: MDA-MB-468 breast
[31] = tested on: HOP-92 NSCLC
[32] = tested on: A549 NSCLC
[33] = tested on: HS 578T breast
[34] = tested on: OVCAR-8 ovarian
[35] = tested on: UACC-257 melanoma
[36] = tested on: SF-268 CNS
[37] = tested on: EKVX NSCLC
[38] = tested on: RXF 393 renal
[39] = tested on: SNB-75 CNS
[40] = tested on: HOP-62 NSCLC
[41] = tested on: RPMI-8226 leukemia
[42] = tested on: IGROV1 ovarian
[43] = tested on: MDA-MB-231 breast
[44] = tested on: NCI-H23 lung
[45] = tested on: NCI-H226 lung
[46] = tested on: A498 renal
[47] = tested on: KM12 colon
[48] = tested on: COLO 205 colon
[49] = tested on: SF-539 CNS
[50] = tested on: OVCAR-3 ovarian
[51] = tested on: MALME-3M melanoma
[52] = tested on: MDA-MB-435
[53] = tested on: TK-10 renal
[54] = tested on: BT-549 breast
[55] = tested on: SK-MEL-5 melanoma
[56] = tested on: MCF7 breast
[57] = tested on: MOLT-4 leukemia
[58] = tested on: NCI-H460 lung
[59] = tested on: SK-MEL-28 melanoma

O=C(O)CCCCCCCCCCN1C(=O)/C(=C/c2cnc(-c3ccc(Cl)cc3)s2)SC1=S
GI50 [1]: 3.11 µM | TGI [1]: > 100 µM | GI50 [2]: 2.64 µM | TGI [2]: 9.67 µM | GI50 [3]: 2.59 µM | TGI [3]: > 100 µM | GI50 [4]: 1.69 µM | TGI [4]: 8.18 µM | GI50 [5]: 4.77 µM | TGI [5]: > 100 µM | GI50 [6]: 3.71 µM | TGI [6]: > 100 µM | GI50 [7]: 5.56 µM | TGI [7]: > 100 µM | GI50 [8]: 2.29 µM | TGI [8]: 7.26 µM | GI50 [9]: 2.38 µM | TGI [9]: 11.7 µM | GI50 [10]: > 100 µM | TGI [10]: > 100 µM | GI50 [11]: 1.69 µM | TGI [11]: 3.87 µM | GI50 [12]: 1.71 µM | TGI [12]: 3.67 µM | GI50 [13]: 1.57 µM | TGI [13]: 3.29 µM | GI50 [14]: 2.52 µM | TGI [14]: 7.21 µM | GI50 [15]: 2.12 µM | TGI [15]: 5.02 µM | GI50 [16]: 1.26 µM | TGI [16]: 4.9 µM | GI50 [17]: 2.07 µM | TGI [17]: 6.06 µM | GI50 [18]: 2.1 µM | TGI [18]: 5.71 µM | GI50 [19]: 3.76 µM | TGI [19]: 28.2 µM | GI50 [20]: 1.75 µM | TGI [20]: 7.51 µM | GI50 [21]: 0.367 µM | TGI [21]: 4.8 µM | GI50 [22]: 5.03 µM | TGI [22]: > 100 µM | GI50 [23]: 1.39 µM | TGI [23]: 2.89 µM | GI50 [24]: 1.81 µM | TGI [24]: 30 µM | GI50 [25]: 2.86 µM | TGI [25]: 9.76 µM | GI50 [26]: 3.31 µM | TGI [26]: 14.3 µM | GI50 [27]: 3.91 µM | TGI [27]: > 100 µM | GI50 [28]: 1.68 µM | TGI [28]: 4.55 µM | GI50 [29]: 3.24 µM | TGI [29]: 8.72 µM | GI50 [30]: 2.63 µM | TGI [30]: 12 µM | GI50 [31]: 0.292 µM | TGI [31]: 1.79 µM | GI50 [32]: 1.01 µM | TGI [32]: 4.51 µM | GI50 [33]: 11.7 µM | TGI [33]: > 100 µM | GI50 [34]: 1.65 µM | TGI [34]: 5.11 µM | GI50 [35]: 5.6 µM | TGI [35]: > 100 µM | GI50 [36]: 4.99 µM | TGI [36]: > 100 µM | GI50 [37]: 1.84 µM | TGI [37]: 5.13 µM | GI50 [38]: 12.1 µM | TGI [38]: 47.3 µM | GI50 [39]: 15.4 µM | TGI [39]: 42.3 µM | GI50 [40]: 3.81 µM | TGI [40]: 15.9 µM | GI50 [41]: 10.3 µM | TGI [41]: > 100 µM | GI50 [42]: 2.89 µM | TGI [42]: 13.7 µM | GI50 [43]: 1.65 µM | TGI [43]: 4.48 µM | GI50 [44]: 2.43 µM | TGI [44]: 8.95 µM | GI50 [45]: 6.46 µM | TGI [45]: 57.2 µM | GI50 [46]: 15.9 µM | TGI [46]: 34.5 µM | GI50 [47]: 2.93 µM | TGI [47]: > 100 µM | GI50 [48]: > 100 µM | TGI [48]: > 100 µM | GI50 [49]: 3.18 µM | TGI [49]: 13.2 µM | GI50 [50]: 4.87 µM | TGI [50]: 51.4 µM | GI50 [51]: 5.92 µM | TGI [51]: 28.1 µM | GI50 [52]: 4.69 µM | TGI [52]: > 100 µM | GI50 [53]: 5.48 µM | TGI [53]: 16.1 µM | GI50 [54]: 1.95 µM | TGI [54]: 6.1 µM | GI50 [55]: 1.86 µM | TGI [55]: 4.74 µM | GI50 [56]: 3.73 µM | TGI [56]: > 100 µM | GI50 [57]: 3.39 µM | TGI [57]: > 100 µM | GI50 [58]: 1.37 µM | TGI [58]: > 100 µM | GI50 [59]: 2.69 µM
